The test system of experiment [1] is recombinant Y. lipolytica (Y. lipolytica-GDH2). In words: Intracellular glutamate content of recombinant strain fermented with L-methionine imide. It counts as cell-based, Yarrowia lipolytica. As to the method: Determination of GDH catalytic activity and intracellular amino acid content: cells were collected by centrifugation in the exponential growth phase and washed by 0.9% saline, then suspended by 10 mL buffer (0.1 M KH2PO4-K2HPO4, 1 mM EDTA, 0.01 mM DTT, pH 7.5). Pickling glass beads was added for grinding for 5 min at 4° C., and then centrifuged at 13000×g for 10 min. The supernatant was used for the determination of catalytic activity of GDH and the intracellular amino acid content.
Intracellular glutamate and glutamine was determinated by the following steps: 200 μl cell disruption supernatant and 800 μL 5% trichloroacetic acid was sequentially added to an 1 mL EP tube and standed for 5 min. 1 mL sample was filtered by 0.22 μm aqueous filter head and then centrifuged at 10000 rpm for 10 min. The amino acid content of the treated sample was measured by HPLC.
The HPLC conditions were as follows: pre-column derivatization of sample was carried out by […] (OPA) and 9-Fluorenylmethyl Chloroformate. […]
The wild type Y. lipolytica WSH-Z06 and the recombinant strain Y. lipolytica-GDH2 were incubated in 500 mL flasks with 50 mL fermentation medium at 28° C., 200 rpm for 96 hours at the same time. […] The glutamate contents were quantified by the methods described above.

For experiment [2] the test system is unchanged. In words: Extracellular α-KG accumulation of recombinant strain fermented with L-methionine imide. The format is cell-based, Yarrowia lipolytica. As to the method: Fermentation medium: 36.1 mg·L^−1 L-methionine imine, 100 g·L^−1 glycerol, 3 g·L^−1 (NH4)2SO4, 3 g·L^−1 KH2PO4, 1.2 g·L^−1 MgSO4·7H2O, 0.5 g·L^−1 NaCl, 0.1 g·L^−1 K2HPO4, 2×10^−7 g·L^−1 thiamine hydrochloride, pH 4.5, and then sterilized at 115° C. for 15 min. CaCO3 sterilized at 121° C. for 30 min was added to 20 g·L^−1 before inoculation.
Extracellular α-KG was quantified by HPLC. Appropriate supernatant of fermentation broth centrifuged at 13000×g was diluted 50-fold with ultrapure water and filtrated by 0.22 μm filter for HPLC analysis. The column was Aminex HPX-87H ion exchange column and 5 mmol·L^−1 sulfuric acid solution (550 μL concentrated sulfuric acid volumed to 2 L) filtrated by 0.22 μm filter and degassed was used as mobile phase. The velocity of flow was 0.6 mL·min^−1 with a column temperature at 35° C. and a injection volume of 10 μL. The wavelength of UV detector was 210 nm.
α-KG was produced as the method described above. The wild type Y. lipolytica WSH-Z06 and the recombinant strain Y. lipolytica-GDH2 were incubated in 500 mL flasks with 50 mL fermentation medium containing L-methionine imide at 28° C., 200 rpm for 144 hours at the same time to accumulate α-KG extracellular.

SMILES strings stand for the structures.

As to `CSCC[C@H](N)C(N)=O` [L-methionine imide], the “content of glutamate intracellular” value in experiment [1] (0.2 mM L-methionine imide added during fermentation of the recombinant strain) was 0.99 μmol per mg dry cells weight (DCW). In addition, the “increase of intracellular glutamate content” value in experiment [1] (0.2 mM L-methionine imide, recombinant strain, versus wild type strain) came to 86.3%. For the same compound, the “increase of extracellular α-KG accumulation” value in experiment [2] (0.2 mM L-methionine imide, versus wild type strain) was 32.4%. For the same compound, in experiment [2] (fermentation medium containing L-methionine imide (0.2 mM), 28° C., 200 rpm, 144 hours), the “accumulation of α-KG extracellular” value came to 19.2 g/L.

Source of the values: US20160138057A1, “Methods for enhancing alpha-ketoglutarata production in Yarrowia lipolytica” (priority 2014, published 2016).
